Data: article PMC8599534, “Isoprenylated Flavonoids as Cav3.1 Low Voltage-Gated Ca^2+ Channel Inhibitors from Salvia digitaloides” (Natural Products and Bioprospecting, 2021)

Target: T1, Cav3.1 low voltage-gated Ca^2+ channel (Homo sapiens, UniProt O43497)
T1 construct: gene CACNA1G
Experiment: electrophysiology: peak-current inhibition in HEK […] cells expressing human Cav3.[…]
Assay type: cell-based

T1 sequence (O43497 whole entry): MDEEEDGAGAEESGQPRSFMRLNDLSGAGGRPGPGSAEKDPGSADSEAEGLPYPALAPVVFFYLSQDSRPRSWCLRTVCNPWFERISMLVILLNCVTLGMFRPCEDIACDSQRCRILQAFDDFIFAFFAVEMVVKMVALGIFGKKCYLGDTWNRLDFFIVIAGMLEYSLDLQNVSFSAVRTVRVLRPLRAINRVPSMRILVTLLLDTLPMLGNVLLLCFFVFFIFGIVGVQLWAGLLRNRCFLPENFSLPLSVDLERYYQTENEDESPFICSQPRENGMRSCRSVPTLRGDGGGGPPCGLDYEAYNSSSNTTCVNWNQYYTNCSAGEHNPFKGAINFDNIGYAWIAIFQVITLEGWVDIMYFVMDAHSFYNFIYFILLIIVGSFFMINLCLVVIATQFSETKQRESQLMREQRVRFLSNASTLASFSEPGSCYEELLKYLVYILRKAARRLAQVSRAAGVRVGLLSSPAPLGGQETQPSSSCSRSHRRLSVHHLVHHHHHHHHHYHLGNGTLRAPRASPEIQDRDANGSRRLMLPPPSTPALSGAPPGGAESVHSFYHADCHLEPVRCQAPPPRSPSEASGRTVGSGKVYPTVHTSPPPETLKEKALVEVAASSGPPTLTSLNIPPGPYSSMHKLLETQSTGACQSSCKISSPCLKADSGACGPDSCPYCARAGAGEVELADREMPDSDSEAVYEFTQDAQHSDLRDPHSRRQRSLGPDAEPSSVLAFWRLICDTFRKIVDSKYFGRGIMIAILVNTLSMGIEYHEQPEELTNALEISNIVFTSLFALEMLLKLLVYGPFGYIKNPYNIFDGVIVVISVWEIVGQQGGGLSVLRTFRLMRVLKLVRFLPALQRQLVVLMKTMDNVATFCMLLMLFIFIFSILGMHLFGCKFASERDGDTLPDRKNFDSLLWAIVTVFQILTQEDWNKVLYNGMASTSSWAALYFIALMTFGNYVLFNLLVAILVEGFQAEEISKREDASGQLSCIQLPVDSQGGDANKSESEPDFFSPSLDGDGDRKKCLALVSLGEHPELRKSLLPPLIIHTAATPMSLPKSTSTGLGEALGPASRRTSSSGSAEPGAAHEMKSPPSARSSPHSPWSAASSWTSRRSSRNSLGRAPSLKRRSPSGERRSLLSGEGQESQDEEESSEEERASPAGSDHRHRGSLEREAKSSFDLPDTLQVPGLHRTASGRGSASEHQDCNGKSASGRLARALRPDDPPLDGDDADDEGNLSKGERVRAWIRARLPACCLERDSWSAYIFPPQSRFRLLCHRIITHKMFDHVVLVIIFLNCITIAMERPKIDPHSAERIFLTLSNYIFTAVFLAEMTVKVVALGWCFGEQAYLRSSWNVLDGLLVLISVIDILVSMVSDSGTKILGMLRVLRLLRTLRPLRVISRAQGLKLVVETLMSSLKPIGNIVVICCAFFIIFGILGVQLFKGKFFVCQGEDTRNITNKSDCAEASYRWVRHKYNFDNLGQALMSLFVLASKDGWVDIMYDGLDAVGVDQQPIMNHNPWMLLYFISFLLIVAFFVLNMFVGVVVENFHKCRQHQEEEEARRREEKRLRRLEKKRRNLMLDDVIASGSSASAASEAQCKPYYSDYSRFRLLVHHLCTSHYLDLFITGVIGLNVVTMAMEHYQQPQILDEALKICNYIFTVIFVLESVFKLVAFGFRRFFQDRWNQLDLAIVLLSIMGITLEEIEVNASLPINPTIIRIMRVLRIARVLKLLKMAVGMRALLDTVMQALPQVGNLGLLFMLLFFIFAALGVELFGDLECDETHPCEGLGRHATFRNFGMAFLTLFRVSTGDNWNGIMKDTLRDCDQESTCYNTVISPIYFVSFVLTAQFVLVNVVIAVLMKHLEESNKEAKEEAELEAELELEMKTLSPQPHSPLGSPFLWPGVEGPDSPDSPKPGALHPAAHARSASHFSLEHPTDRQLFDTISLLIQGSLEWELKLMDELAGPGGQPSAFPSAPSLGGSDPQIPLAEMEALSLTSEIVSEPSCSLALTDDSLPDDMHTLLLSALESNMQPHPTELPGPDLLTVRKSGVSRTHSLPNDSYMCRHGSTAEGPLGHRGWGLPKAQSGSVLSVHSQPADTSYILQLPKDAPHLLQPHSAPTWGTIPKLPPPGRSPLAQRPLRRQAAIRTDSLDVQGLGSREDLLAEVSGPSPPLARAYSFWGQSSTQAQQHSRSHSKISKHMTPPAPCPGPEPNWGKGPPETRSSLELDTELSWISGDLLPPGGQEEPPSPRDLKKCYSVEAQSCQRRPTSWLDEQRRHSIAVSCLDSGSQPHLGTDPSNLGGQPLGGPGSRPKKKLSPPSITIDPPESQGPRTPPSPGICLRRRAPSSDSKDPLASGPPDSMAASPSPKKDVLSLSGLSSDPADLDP

CC(C)=CCc1c([C@@H]2CC(=O)c3c(O)cc(O)c(CC=C(C)C)c3O2)cc2c(c1O)OC(C)(C)C=C2 [compound 2, 5,7,3′-trihydroxy-4′,5′-(2⁗,2⁗-dimethylpyran)-8,2′-di(3-methyl-2-butenyl)-(2S)-flavanone]
IC50: 3.5 µM
